# Molecular target: human TMEM16A (TMEM16Aabc variant) (Homo sapiens, UniProt Q5XXA6, DEL476-501, form not given)
# Assay: Automated whole-cell patch clamp (Qpatch) TMEM16A potentiator assay in FRT cells stably expressing human TMEM16A
# Type: cell-based
# Conditions: for % Potentiation @ 3.33 μM Avg: 3.33 μM solution of test compound, percentage increase of baseline TMEM16A current; for EC50: calculated EC50, Qpatch TMEM16A current at +70 mV
# Summary of the method: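 Potentiation was read as the rise in peak +70 mV current over baseline (%), from cumulative 5-min additions of compound. Recordings used whole-cell automated patch of FRT cells stably carrying human TMEM16Aabc, with pipette Ca2+ buffered to give ~20% maximal current. EC50 and efficacy came from concentration-response fits.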
# human TMEM16A (TMEM16Aabc variant), sequence (Q5XXA6 with tags, fused parts or gaps DEL476-501): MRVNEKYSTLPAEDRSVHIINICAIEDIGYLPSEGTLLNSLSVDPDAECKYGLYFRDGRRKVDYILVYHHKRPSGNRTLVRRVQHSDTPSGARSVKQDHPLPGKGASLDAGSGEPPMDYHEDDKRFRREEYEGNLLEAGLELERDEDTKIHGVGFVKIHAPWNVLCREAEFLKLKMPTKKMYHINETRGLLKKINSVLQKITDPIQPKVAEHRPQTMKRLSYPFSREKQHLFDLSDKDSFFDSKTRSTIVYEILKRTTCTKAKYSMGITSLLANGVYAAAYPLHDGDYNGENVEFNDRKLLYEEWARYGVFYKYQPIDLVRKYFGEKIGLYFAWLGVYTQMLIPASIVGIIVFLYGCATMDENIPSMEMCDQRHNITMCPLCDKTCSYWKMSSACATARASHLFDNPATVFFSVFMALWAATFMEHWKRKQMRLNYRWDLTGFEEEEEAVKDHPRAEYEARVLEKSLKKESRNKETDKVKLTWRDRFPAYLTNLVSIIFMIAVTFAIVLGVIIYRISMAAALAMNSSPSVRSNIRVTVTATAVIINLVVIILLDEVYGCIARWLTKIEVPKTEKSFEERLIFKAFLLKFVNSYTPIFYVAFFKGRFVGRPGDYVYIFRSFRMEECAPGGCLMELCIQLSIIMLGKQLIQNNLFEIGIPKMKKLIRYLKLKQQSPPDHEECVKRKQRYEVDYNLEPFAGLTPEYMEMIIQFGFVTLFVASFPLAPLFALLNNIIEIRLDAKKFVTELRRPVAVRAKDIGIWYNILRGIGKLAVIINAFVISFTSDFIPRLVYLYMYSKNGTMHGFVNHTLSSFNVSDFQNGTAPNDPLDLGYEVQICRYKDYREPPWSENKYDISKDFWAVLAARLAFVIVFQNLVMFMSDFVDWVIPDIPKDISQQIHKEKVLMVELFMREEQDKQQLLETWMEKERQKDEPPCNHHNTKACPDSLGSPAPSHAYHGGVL
SMILES,% Potentiation @ 3.33 μM Avg [%],EC50 [µM]
"C#CC1(NC(=O)c2cc(NC(=O)Cc3ccccc3Cl)ccn2)CCOCC1 [Example 30.11, 4-[[2-(2-Chlorophenyl)acetyl]amino]-N-(4-ethynyltetrahydropyran-4-yl)pyridine-2-carboxamide]",125,0.22
"N#CC1(NC(=O)c2cc(NC(=O)Cc3ccccc3Cl)ccn2)CCCC1 [Example 30.12, 4-[[2-(2-Chlorophenyl)acetyl]amino]-N-(1-cyanocyclopentyl)pyridine-2-carboxamide]",314,
"CC(C)(NC(=O)c1cc(NC(=O)Cc2ccccc2Cl)ccn1)C(F)F [Example 30.13, 4-[[2-(2-Chlorophenyl)acetyl]amino]-N-(2,2-difluoro-1,1-dimethyl-ethyl)pyridine-2-carboxamide]",205,0.38
"N#CC1(NC(=O)c2cc(NC(=O)Cc3cc(Cl)ccc3O)ccn2)CCOCC1 [Example 31, 4-[[2-(5-Chloro-2-hydroxy-phenyl)acetyl]amino]-N-(4-cyanotetrahydropyran-4-yl)pyridine-2-carboxamide]",223,0.12
"C#CC1(NC(=O)c2cc(NC(=O)Cc3cc(Cl)ccc3O)ccn2)CCCC1 [Example 31.2, 4-[[2-(5-Chloro-2-hydroxy-phenyl)acetyl]amino]-N-(1-ethynylcyclopentyl)pyridine-2-carboxamide]",110,0.01
"O=C(Cc1cc(Cl)ccc1O)Nc1ccnc(C(=O)N[C@H]2CCCC[C@@H]2O)c1 [Example 31.3, 4-[2-(5-Chloro-2-hydroxyphenyl)acetamido]-N-[(1s,2s)-2-hydroxycyclohexyl] pyridine-2-carboxamide]",205,0.21
"C#CC1(NC(=O)c2cc(NC(=O)Cc3cc(Cl)ccc3O)ccn2)CCOCC1 [Example 31.4, 4-[[2-(5-Chloro-2-hydroxy-phenyl)acetyl]amino]-N-(4-ethynyltetrahydropyran-4-yl)pyridine-2-carboxamide]",186,0.02
"Nc1cccc(CNC(=O)c2cc(NC(=O)Cc3cc(Cl)ccc3O)ccn2)n1 [Example 32, N-[(6-Amino-2-pyridyl)methyl]-4-[[2-(5-chloro-2-hydroxy-phenyl)acetyl]amino]pyridine-2-carboxamide]",171,
"O=C(O)CCCCCCCCCCCNC(=O)c1cc(NC(=O)Cc2cc(Cl)ccc2O)ccn1 [Example 32.1, 12-[[4-[[2-(5-Chloro-2-hydroxy-phenyl)acetyl]amino]pyridine-2-carbonyl]amino]dodecanoic acid]",246,
"O=C(Cc1cc(Cl)ccc1O)Nc1ccnc(C(=O)NCc2cccnc2)c1 [Example 32.2, 4-[[2-(5-Chloro-2-hydroxy-phenyl)acetyl]amino]-N-(3-pyridylmethyl)pyridine-2-carboxamide]",183,0.34
"O=C(Cc1cc(Cl)ccc1O)Nc1ccnc(C(=O)NCc2ccccn2)c1 [Example 32.3, 4-[[2-(5-Chloro-2-hydroxy-phenyl)acetyl]amino]-N-(2-pyridylmethyl)pyridine-2-carboxamide]",288,0.29
"O=C(Cc1cc(Cl)ccc1O)Nc1ccnc(C(=O)NCc2ccncc2)c1 [Example 32.4, 4-[[2-(5-Chloro-2-hydroxy-phenyl)acetyl]amino]-N-(4-pyridylmethyl)pyridine-2-carboxamide]",187,0.71
"O=C(Cc1cc(Cl)ccc1O)Nc1ccnc(C(=O)NCc2ccccc2O)c1 [Example 32.5, 4-[[2-(5-Chloro-2-hydroxy-phenyl)acetyl]amino]-N-[(2-hydroxyphenyl)methyl]pyridine-2-carboxamide]",177,0.59
"CC(C)(CN1CCOCC1)NC(=O)c1cc(NC(=O)Cc2cc(Cl)ccc2O)ccn1 [Example 32.6, 4-[[2-(5-Chloro-2-hydroxy-phenyl)acetyl]amino]-N-(1,1-dimethyl-2-morpholino-ethyl)pyridine-2-carboxamide]",153,0.82
"CC(C)(CO)NC(=O)c1cc(NC(=O)Cc2cc(Cl)ccc2O)ccn1 [Example 32.7, 4-[[2-(5-Chloro-2-hydroxy-phenyl)acetyl]amino]-N-(2-hydroxy-1,1-dimethyl-ethyl)pyridine-2-carboxamide]",111,0.2
"O=C(Cc1cc(Cl)ccc1O)Nc1ccnc(C(=O)NC2CCNCC2(F)F)c1 (stereo not shown) [Example 32.8, 4-[[2-(5-Chloro-2-hydroxy-phenyl)acetyl]amino]-N-(3,3-difluoro-4-piperidyl)pyridine-2-carboxamide]",79,
"O=C(Cc1cc(Cl)ccc1O)Nc1ccnc(C(=O)Nc2ncc[nH]2)c1 [Example 32.9, 4-[[2-(5-Chloro-2-hydroxy-phenyl)acetyl]amino]-N-(1H-imidazol-2-yl)pyridine-2-carboxamide]",31,

SMILES,% Potentiation @ 3.33 μM Avg [%],EC50 [µM]
"O=C(Cc1cc(Cl)ccc1O)Nc1ccnc(C(=O)N[C@@H]2CCC[C@H]2O)c1 [Example 33, 4-[[2-(5-Chloro-2-hydroxy-phenyl)acetyl]amino]-N-[(1R,2R)-2-hydroxycyclopentyl] pyridine-2-carboxamide]",245,0.24
"CC(C)(C#N)NC(=O)c1cc(NC(=O)Cc2cc(Cl)ccc2O)ccn1 [Example 34, 4-[[2-(5-Chloro-2-hydroxy-phenyl)acetyl]amino]-N-(1-cyano-1-methyl-ethyl)pyridine-2-carboxamide]",245,0.09
"CC1(O)CCC(NC(=O)c2cc(NC(=O)Cc3cc(Cl)ccc3O)ccn2)CC1 (stereo not shown) [Example 35.1, 4-[[2-(5-Chloro-2-hydroxy-phenyl)acetyl]amino]-N-(4-hydroxy-4-methyl-cyclohexyl) pyridine-2-carboxamide]",51,
"O=C(Cc1cc(Cl)ccc1O)Nc1ccnc(C(=O)N[C@H]2CCCC[C@H]2CO)c1 [Example 35.2, 4-[[2-(5-Chloro-2-hydroxy-phenyl)acetyl]amino]-N-[(1s,2r)-2-(hydroxymethyl)cyclohexyl]pyridine-2-carboxamide]",300,0.61
"O=C(Cc1cc(Cl)ccc1O)Nc1ccnc(C(=O)N[C@H]2CC[C@@H](O)C2)c1 [Example 35.3, 4-[[2-(5-Chloro-2-hydroxy-phenyl)acetyl]amino]-N-[(1s,3r)-3-hydroxycyclopentyl]pyridine-2-carboxamide]",144,
"CC(CO)(CO)NC(=O)c1cc(NC(=O)Cc2cc(Cl)ccc2O)ccn1 [Example 35.4, 4-[[2-(5-Chloro-2-hydroxy-phenyl)acetyl]amino]-N-[2-hydroxy-1-(hydroxymethyl)-1-methyl-ethyl]pyridine-2-carboxamide]",138,
"O=C(Cc1cc(Cl)ccc1O)Nc1ccnc(C(=O)NC2CCCC(O)C2)c1 (stereo not shown) [Example 35.6, 4-[[2-(5-Chloro-2-hydroxy-phenyl)acetyl]amino]-N-(3-hydroxycyclohexyl)pyridine-2-carboxamide]",53,
"O=C(Cc1cc(Cl)ccc1O)Nc1ccnc(C(=O)NCCCOc2ccccc2)c1 [Example 35.7, 4-[[2-(5-Chloro-2-hydroxy-phenyl)acetyl]amino]-N-(3-phenoxypropyl)pyridine-2-carboxamide]",97,
"CC1(NC(=O)c2cc(NC(=O)Cc3cc(Cl)ccc3O)ccn2)CC1 [Example 35.8, 4-[[2-(5-Chloro-2-hydroxy-phenyl)acetyl]amino]-N-(1-methylcyclopropyl)pyridine-2-carboxamide]",250,0.18
"CC(C)(NC(=O)c1cc(NC(=O)Cc2cc(Cl)ccc2O)ccn1)c1ccccn1 [Example 35.9, 4-[[2-(5-Chloro-2-hydroxy-phenyl)acetyl]amino]-N-[1-methyl-1-(2-pyridyl)ethyl]pyridine-2-carboxamide]",455,0.54
"O=C(Cc1cc(Cl)ccc1O)Nc1ccnc(C(=O)NCCCc2ccccc2)c1 [Example 35.10, 4-[[2-(5-Chloro-2-hydroxy-phenyl)acetyl]amino]-N-(3-phenylpropyl)pyridine-2-carboxamide]",223,0.28
"O=C(Cc1cc(Cl)ccc1O)Nc1ccnc(C(=O)NC(CO)c2ccccn2)c1 (stereo not shown) [Example 35.11, 4-[[2-(5-Chloro-2-hydroxy-phenyl)acetyl]amino]-N-[2-hydroxy-1-(2-pyridyl)ethyl] pyridine-2-carboxamide]",107,
"COc1ccc(CNC(=O)c2cc(NC(=O)Cc3cc(Cl)ccc3O)ccn2)nc1 [Example 35.12, 4-[[2-(5-Chloro-2-hydroxy-phenyl)acetyl]amino]-N-[(5-methoxy-2-pyridyl)methyl]pyridine-2-carboxamide]",158,0.42
"CCOC(=O)CC(C)(C)NC(=O)c1cc(NC(=O)Cc2cc(Cl)ccc2O)ccn1 [Example 35.13, ethyl 3-[[4-[[2-(5-chloro-2-hydroxy-phenyl)acetyl]amino]pyridine-2-carbonyl]amino]-3-methyl-butanoate]",191,0.35
"CC(C)(CCO)NC(=O)c1cc(NC(=O)Cc2cc(Cl)ccc2O)ccn1 [Example 35.14, 4-[[2-(5-Chloro-2-hydroxy-phenyl)acetyl]amino]-N-(3-hydroxy-1,1-dimethyl-propyl)pyridine-2-carboxamide]",172,0.27
"O=C(Cc1cc(Cl)ccc1O)Nc1ccnc(C(=O)NCc2ccccc2)c1 [Example 35.15, N-Benzyl-4-[[2-(5-chloro-2-hydroxy-phenyl)acetyl]amino]pyridine-2-carboxamide]",158,0.15

# From patent US20200361871A1 (Enterprise Therapeutics Ltd., priority 2018, published 2020)
